The values that follow are results of earlier work, collected in US20210030671A1, “LIQUID DOSAGE FORMS OF CINACALCET OR SALT THEREOF” (FTF PHARMA PRIVATE LIMITED, priority 2018, published 2021).

As usually defined, the solubility is the concentration that dissolves in the medium under given conditions.

Structures can show the parent of a compound that is named as a salt. Where two headings read alike, the source gives them in different places.

In the case of `C[C@@H](NCCCc1cccc(C(F)(F)F)c1)c1cccc2ccccc12` [Cinacalcet, N-[1-(R)-(−)-(1-naphthyl)ethyl]-3-[3-(trifluoromethyl)phenyl]-1-aminopropane], the solubility (in water) was below 1 µg/mL. For the compound `C[C@@H](NCCCc1cccc(C(F)(F)F)c1)c1cccc2ccccc12` [Cinacalcet hydrochloride], the solubility result (in methanol or 95% ethanol) is on record as “soluble” and the solubility result (in water) is recorded as “slightly soluble”.
